One may read the IC50 as the concentration at which inhibition is half-maximal.

Assay [1] has as its target T1, human recombinant Bcl-2 protein (Homo sapiens, UniProt P10415).
T1 construct: purchased Beijing Yigiao Shenzhou Biotechnology Co., Ltd. 10195-HOSE
In words: Fluorescence polarization test for inhibition of BCL-2 binding to FITC-BIM. To be noted: 5 nM BCL-2, 5 nM FITC-BIM, read-out: FP BCL-2 IC50. The gist of the method:
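FP competition: compound preincubated 15 min with recombinant human Bcl-2 (diluted to 5 nM), then FITC-BIM (diluted to 5 nM) added for 30 min at room temperature in PBS pH 7.4 with 1 mM DTT. Polarization read at 480/535 nm; IC50 from 8-point 4-fold series fitted by four-parameter equation.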

Assay [2] relates to RS4;11 cells (acute lymphoblastic leukemia cells). Description: RS4;11 cell proliferation, CellTilter-Glo luminescence cell viability assay. Format: cell-based. As to conditions: Homo sapiens, RS4-11; CTG readout after 48 hours. The gist of the method: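 RS4;11 cells plated overnight were exposed for 48 h at 37 °C, 5% CO2 to an 8-point, 4-fold compound dilution series; the vehicle control contained 0.2% DMSO. Viability was read by CellTiter-Glo luminescence. Percent inhibition was referenced to no-cell and DMSO controls, and IC50 came from a four-parameter sigmoidal fit.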

In assay [3] the target is T2, human recombinant Bcl-XL protein (Homo sapiens, UniProt Q07817).
T2 construct: purchased Beijing Yiqiao Shenzhou Biotechnology Co., Ltd. 10455-H0SE
T2 sequence (Q07817 whole entry): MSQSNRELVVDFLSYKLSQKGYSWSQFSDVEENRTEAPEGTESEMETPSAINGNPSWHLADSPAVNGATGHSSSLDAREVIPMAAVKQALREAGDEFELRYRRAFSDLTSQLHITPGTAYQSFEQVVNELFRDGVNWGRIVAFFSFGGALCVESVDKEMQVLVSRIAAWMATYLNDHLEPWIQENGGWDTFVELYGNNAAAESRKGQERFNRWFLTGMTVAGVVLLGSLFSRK
Description: Fluorescence polarization test for inhibition of BCL-XL binding to FITC-BIM. As to conditions: 10 nM BCL-XL, 10 nM FITC-BIM, read-out: FP BCL-XL IC50. The gist of the method:
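Human recombinant Bcl-XL (10 nM diluted stock) preincubated with compound 15 min at RT in PBS pH 7.4, 1 mM DTT, then FITC-BIM peptide (10 nM diluted stock) added for 30 min in dark. FP read at ex 480/em 535 nm; no-protein wells = 100% inhibition; IC50 from 8-point 4-fold dilution curve fit.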
For orientation: In fluorescence polarisation assays a small probe gives low polarisation when free and higher when bound to something large.

T1 sequence (P10415 whole entry): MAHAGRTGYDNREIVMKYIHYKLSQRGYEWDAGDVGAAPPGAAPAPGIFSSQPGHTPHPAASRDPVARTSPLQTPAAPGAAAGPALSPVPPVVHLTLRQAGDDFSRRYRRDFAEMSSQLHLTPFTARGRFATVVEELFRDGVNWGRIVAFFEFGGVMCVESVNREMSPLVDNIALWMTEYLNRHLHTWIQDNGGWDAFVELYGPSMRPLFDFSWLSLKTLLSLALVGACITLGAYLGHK

For the compound `C[C@@H]1CN(c2ccc(C(=O)NS(=O)(=O)c3cc(F)c(NC[C@H]4COCCO4)c([N+](=O)[O-])c3)c(Oc3cnc4[nH]ccc4c3)c2)CCN1CC1=C(c2ccc(Cl)cc2)CC(C)(C)C(C)(C)C1` [Example 41, N-((4-((((S)-1,4-dioxan-2-yl)methyl)amino)-3-fluoro-5-nitrophenyl)sulfonyl)-2-((1H-pyrrolo[2,3-b]pyridin-5-yl)oxy)-4-((R)-4-((4′-chloro-4,4,5,5-tetramethyl-3,4,5,6-tetrahydro-[1,1′-biphenyl]-2-yl)methyl)-3-methylpiperazin-1-yl)benzamide], the IC50 in assay [1] is 1.28 nM; in assay [2], 8 nM; in assay [3], above 1000 nM.
For the compound `C[C@@H]1CN(c2ccc(C(=O)NS(=O)(=O)c3ccc(NC[C@H]4COCCO4)c([N+](=O)[O-])c3)c(Oc3cnc4[nH]ccc4c3)c2)CCN1CC1=C(c2ccc(Cl)cc2)CC(C)(C)C(C)(C)C1` [Example 42, N-((4-((((S)-1,4-dioxan-2-yl)methyl)amino)-3-nitrophenyl)sulfonyl)-2-((1H-pyrrolo[2,3-b]pyridin-5-yl)oxy)-4-((R)-4-((4′-chloro-4,4,5,5-tetramethyl-3,4,5,6-tetrahydro-[1,1′-biphenyl]-2-yl)methyl)-3-methylpiperazin-1-yl) benzamide], the IC50 in assay [1] is 1.53 nM; in assay [2] it was 10 nM; in assay [3], above 1000 nM.
The like results for `C[C@@H]1CN(CC2=C(c3ccc(Cl)cc3)CCC(C)(C)C2)CCN1c1ccc(C(=O)NS(=O)(=O)c2cc(F)c(NCC3CCOCC3)c([N+](=O)[O-])c2)c(Oc2cnc3[nH]ccc3c2)c1` [Example 43, (R)-2-((1H-pyrrolo[2,3-b]pyridin-5-yl)oxy)-4-(4-((4′-chloro-4,4-dimethyl-3,4,5,6-tetrahydro[1,1′-biphenyl]-2-yl)methyl)-2-methylpiperazin-1-yl)-N-((3-fluoro-5-nitro-4--(((tetrahydro-2H-pyran-4-yl)methyl)amino)phenyl)sulfonyl)benzamide] were, in that order, 6.33 nM, 161 nM and above 1000 nM.
Turning to `C[C@@H]1CN(CC2=C(c3ccc(Cl)cc3)CCC(C)(C)C2)CCN1c1ccc(C(=O)NS(=O)(=O)c2ccc(NC[C@H]3COCCO3)c([N+](=O)[O-])c2)c(Oc2cnc3[nH]ccc3c2)c1` [Example 44, N-((4-((((S)-1,4-dioxan-2-yl)methyl)amino)-3-nitrophenyl)sulfonyl)-2-((1H-pyrrolo[2,3-b]pyridin-5-yl)oxy)-4-((R)-4-((4′-chloro-4,4-dimethyl-3,4,5,6-tetrahydro-[1,1′-biphenyl]-2-yl)methyl)-2-methylpiperazin-1-yl) benzamide], the concentration for half-maximal inhibition (IC50) in assay [1] is 4.98 nM; in assay [2] it was 54 nM; in assay [3] it was above 1000 nM.
Taken in the same sequence, the figures for `C[C@@H]1CN(CC2=C(c3ccc(Cl)cc3)CCC(C)(C)C2)CCN1c1ccc(C(=O)NS(=O)(=O)c2cc(F)c(NC[C@H]3COCCO3)c([N+](=O)[O-])c2)c(Oc2cnc3[nH]ccc3c2)c1` [Example 45, N-((4-((((S)-1,4-dioxan-2-yl)methyl)amino)-3-fluoro-5-nitrophenyl)sulfonyl)-2-((1H-pyrrolo[2,3-b]pyridin-5-yl)oxy)-4-((R)-4-((4′-chloro-4,4-dimethyl-3,4,5,6-tetrahydro-[1,1′-biphenyl]-2-yl)methyl)-2-methylpiperazin-1-yl)benzamide] were 4.22 nM, 52 nM and above 1000 nM.
`C[C@@H]1CN(CC2=C(c3ccc(Cl)cc3)CC(C)(C)CC2)CCN1c1ccc(C(=O)NS(=O)(=O)c2cc(F)c(NC[C@H]3COCCO3)c([N+](=O)[O-])c2)c(Oc2cnc3[nH]ccc3c2)c1` [Example 46]: the IC50 in assay [1] was 1.09 nM; in assay [2], 18 nM; in assay [3], above 1000 nM.

These data come from patent publication US20230271959A1, “HETEROCYCLIC COMPOUND AS BCL-2 INHIBITOR” (Beijing Innocare Pharma Tech Co., Ltd., priority 2020, published 2023).
